From patent US10238670B2, “9-aminomethyl minocycline compounds and methods of use thereof in urinary tract infection (UTI) treatment” (Paratek Pharmaceuticals, Inc., priority 2016, dated 2019)
In brackets after ≈: the same amount, converted by molar mass.

How the values were obtained:
Assay in all cases: In vitro MIC, 2010 surveillance isolates
E. cloacae CeftazR = assay type: cell-based; details: N America; N=77
Enterobacter spp = assay type: cell-based
A. baumanii = assay type: cell-based
Acinetobacter spp = assay type: cell-based; details: for range of MICs (N <10, shown instead of MIC90): N=9
MSSA = assay type: cell-based; details: for Cumulative % Inhibition at MIC: N=5713
MRSA = assay type: cell-based; details: for Cumulative % Inhibition at MIC: N=4192
MS CoNS = assay type: cell-based, Coagulase-Negative Staphylococcus; details: for Cumulative % Inhibition at MIC: N=461
MR CoNS = assay type: cell-based, Coagulase-Negative Staphylococcus; details: for Cumulative % Inhibition at MIC: N=1349
E. faecalis VS = assay type: cell-based; details: for Cumulative % Inhibition at MIC: N=2036
E. faecalis VNS = assay type: cell-based; details: for Cumulative % Inhibition at MIC: N=54
E. faecium VS = assay type: cell-based; details: for Cumulative % Inhibition at MIC: N=575
E. faecium VNS = assay type: cell-based; details: for Cumulative % Inhibition at MIC: N=614

## CN(C)c1cc(CNCC(C)(C)C)c(O)c2c1C[C@H]1C[C@H]3[C@H](N(C)C)C(O)=C(C(N)=O)C(=O)[C@@]3(O)C(O)=C1C2=O [Compound 1, 9-[(2,2-dimethyl-propylamino)-methyl]-minocycline]
E. cloacae CeftazR
  MIC90: 16 µg/mL (≈ 28.7 µM)
Enterobacter spp; Asia/Pac, N=52
  MIC90: 16 µg/mL (≈ 28.7 µM)
Enterobacter spp; Europe, N=82
  MIC90: 4 µg/mL (≈ 7.19 µM)
Enterobacter spp; L. Amer, N=42
  MIC90: 4 µg/mL (≈ 7.19 µM)
Enterobacter spp; N America, N=101
  MIC90: 4 µg/mL (≈ 7.19 µM)
A. baumanii; Asia/Pac, N=275
  MIC90: 4 µg/mL (≈ 7.19 µM)
A. baumanii; Europe, N=145
  MIC90: 4 µg/mL (≈ 7.19 µM)
A. baumanii; L. Amer, N=275
  MIC90: 4 µg/mL (≈ 7.19 µM)
A. baumanii; N America, N=154
  MIC90: 8 µg/mL (≈ 14.4 µM)
Acinetobacter spp; Asia/Pac
  range of MICs (N <10, shown instead of MIC90): 0.06-2
Acinetobacter spp; Europe, N=43
  MIC90: 4 µg/mL (≈ 7.19 µM)
Acinetobacter spp; L. Amer
  range of MICs (N <10, shown instead of MIC90): 0.03-4
Acinetobacter spp; N America, N=42
  MIC90: 2 µg/mL (≈ 3.59 µM)
MSSA; Asia/Pac, N=641
  MIC90: 0.5 µg/mL (≈ 0.898 µM)
MSSA; Europe, N=2109
  MIC90: 0.25 µg/mL (≈ 0.449 µM)
MSSA; L. Amer, N=590
  MIC90: 0.25 µg/mL (≈ 0.449 µM)
MSSA; MIC 1 μg/ml
  Cumulative % Inhibition at MIC: 99.9%
MSSA; MIC 2 μg/ml
  Cumulative % Inhibition at MIC: 100%
MSSA; MIC ≤0.5 μg/ml
  Cumulative % Inhibition at MIC: 99.7%
MSSA; N America, N=2373
  MIC90: 0.25 µg/mL (≈ 0.449 µM)
MRSA; Asia/Pac, N=428
  MIC90: 1 µg/mL (≈ 1.8 µM)
MRSA; Europe, N=750
  MIC90: 0.25 µg/mL (≈ 0.449 µM)
MRSA; L. Amer, N=506
  MIC90: 0.25 µg/mL (≈ 0.449 µM)
MRSA; MIC 1 μg/ml
  Cumulative % Inhibition at MIC: 98.4%
MRSA; MIC 2 μg/ml
  Cumulative % Inhibition at MIC: 99.8%
MRSA; MIC 4 μg/ml
  Cumulative % Inhibition at MIC: 100%
MRSA; MIC ≤0.5 μg/ml
  Cumulative % Inhibition at MIC: 95.4%
MRSA; N America, N=2508
  MIC90: 0.5 µg/mL (≈ 0.898 µM)
MS CoNS; Asia/Pac, N=18
  MIC90: 0.25 µg/mL (≈ 0.449 µM)
MS CoNS; Europe, N=185
  MIC90: 1 µg/mL (≈ 1.8 µM)
MS CoNS; L. Amer, N=67
  MIC90: 0.5 µg/mL (≈ 0.898 µM)
MS CoNS; MIC 1 μg/ml
  Cumulative % Inhibition at MIC: 99.8%
MS CoNS; MIC 2 μg/ml
  Cumulative % Inhibition at MIC: 100%
MS CoNS; MIC ≤0.5 μg/ml
  Cumulative % Inhibition at MIC: 92.4%
MS CoNS; N America, N=191
  MIC90: 0.5 µg/mL (≈ 0.898 µM)
MR CoNS; Asia/Pac, N=77
  MIC90: 1 µg/mL (≈ 1.8 µM)
MR CoNS; Europe, N=510
  MIC90: 1 µg/mL (≈ 1.8 µM)
MR CoNS; L. Amer, N=301
  MIC90: 1 µg/mL (≈ 1.8 µM)
MR CoNS; MIC 1 μg/ml
  Cumulative % Inhibition at MIC: 99.1%
MR CoNS; MIC 2 μg/ml
  Cumulative % Inhibition at MIC: 100%
MR CoNS; MIC ≤0.5 μg/ml
  Cumulative % Inhibition at MIC: 85.9%
MR CoNS; N America, N=461
  MIC90: 1 µg/mL (≈ 1.8 µM)
E. faecalis VS; Asia/Pac, N=214
  MIC90: 0.5 µg/mL (≈ 0.898 µM)
E. faecalis VS; Europe, N=669
  MIC90: 0.25 µg/mL (≈ 0.449 µM)
E. faecalis VS; L. Amer, N=290
  MIC90: 0.25 µg/mL (≈ 0.449 µM)
E. faecalis VS; MIC 1 μg/ml
  Cumulative % Inhibition at MIC: 99.9%
E. faecalis VS; MIC 2 μg/ml
  Cumulative % Inhibition at MIC: 100%
E. faecalis VS; MIC ≤0.5 μg/ml, listed as head image P00001
  Cumulative % Inhibition at MIC: 99.3%
E. faecalis VS; N America, N=863
  MIC90: 0.5 µg/mL (≈ 0.898 µM)
E. faecalis VNS; Asia/Pac, N=1
  range of MICs (N <10, shown instead of MIC90): 0.5
E. faecalis VNS; Europe, N=8
  range of MICs (N <10, shown instead of MIC90): 0.06-0.5
E. faecalis VNS; L. Amer, N=7
  range of MICs (N <10, shown instead of MIC90): ≤0.015-0.06
E. faecalis VNS; MIC 1 μg/ml
  Cumulative % Inhibition at MIC: 100%
E. faecalis VNS; MIC ≤0.5 μg/ml, listed as head image P00002
  Cumulative % Inhibition at MIC: 98.1%
E. faecalis VNS; N America, N=38
  MIC90: 0.25 µg/mL (≈ 0.449 µM)
E. faecium VS; Asia/Pac, N=106
  MIC90: 0.25 µg/mL (≈ 0.449 µM)
E. faecium VS; Europe, N=303
  MIC90: 0.12 µg/mL (≈ 0.216 µM)
E. faecium VS; L. Amer, N=51
  MIC90: 0.12 µg/mL (≈ 0.216 µM)
E. faecium VS; MIC 1 μg/ml
  Cumulative % Inhibition at MIC: 100%
E. faecium VS; MIC ≤0.5 μg/ml, listed as head image P00003
  Cumulative % Inhibition at MIC: 99.8%
E. faecium VS; N America, N=115
  MIC90: 0.25 µg/mL (≈ 0.449 µM)
E. faecium VNS; Asia/Pac, N=24
  MIC90: 0.25 µg/mL (≈ 0.449 µM)
E. faecium VNS; Europe, N=71
  MIC90: 0.25 µg/mL (≈ 0.449 µM)
E. faecium VNS; L. Amer, N=41
  MIC90: 0.12 µg/mL (≈ 0.216 µM)
E. faecium VNS; MIC 1 μg/ml
  Cumulative % Inhibition at MIC: 100%
E. faecium VNS; MIC ≤0.5 μg/ml, listed as head image P00004
  Cumulative % Inhibition at MIC: 98.4%
E. faecium VNS; N America, N=478
  MIC90: 0.25 µg/mL (≈ 0.449 µM)
